Read-outs that look alike come from different tables or passages of the source.
What was measured:
[1] = target: T1, A2 Receptor (Rattus norvegicus, UniProt P30543); assay: Adenosine A2 receptor binding test (inhibition of 3H-CGS 21680 binding); details: rat corpus striatum, 3H-CGS 21680 4.0 nM
T1 construct: from tissue; host or cells: rat corpus striatum (membrane suspension)
Procedure: Adenosine Receptor Antagonistic Activity (Adenosine A2 Receptor Binding Test)
The test was conducted according to the method of Bruns et al. [Mol. Pharmacol., 29, 331 (1986)] with slight modification.
Corpus striatum of a rat was suspended in ice-cooled 50 mM Tris (hydroxymethyl) aminomethane hydrochloride (Tris HCl) buffer (pH 7.7) by using Polytron homogenizer (manufactured by Kinematica Co.). The suspension was centrifuged (50,000×g, 10 minutes), and the precipitate was suspended again in the same amount of 50 mM Tris HCl buffer. The suspension was centrifuged under the same conditions, and the final precipitate was suspended in 50 mM Tris HCl buffer [containing 10 mM magnesium chloride and 0.02 unit/mg tissue of adenosine deaminase (manufactured by Sigma Co.)] to give a tissue concentration of 5 mg (wet weight)/ml.
To 1 ml of the tissue suspension thus prepared were added 50 μl of tritium labeled CGS 21680 {^3 H-2-[p-(2-carboxyethyl) phenethylamino]-5'-(N-ethylcarboxamide)-adenosine: 40 Ci/mmol; manufactured by New England Nuclear Co. [J. Pharmacol. Exp. Ther., 251, 888 (1989)]} (final concentration: 4.0 nM) and 50 μl of a test compound. The resulting mixture was allowed to stand at 25° C. for 120 minutes and then rapidly filtered by suction through a glass fiber filter (GF/C; manufactured by Whatman Co.). The filter was immediately washed three times with 5 ml each of ice-cooled 50 mM Tris HCl buffer, and transferred to a vial, and a scintillator (EX-H; manufactured by Wako Pure Chemical Industries, Ltd.) was added thereto. The radioactivity on the filter was determined with a liquid scintillation counter (manufactured by Packard Instrument Co.).
The inhibition rate of the test compound against the binding of A2 receptors (^3 H-CGS 21680 binding) was calculated by the following equation: [formula] [Notes]B: Amount of the binding in the presence of the test compound.
T: Amount of the total binding.
N: Amount of the nonspecific binding.
Amount of the total binding means the amount of radioactivity of ^3 H-CGS 21680 bound in the absence of the test compound. Amount of the nonspecific binding means the amount of radioactivity of ^3 H-CGS 21680 bound in the presence of 100 μM cyclopentyladenosine (CPA; manufactured by Sigma Co.). Amount of the binding in the presence of the test compound means the amount of radioactivity of ^3 H-CGS 21680 bound in the presence of the test compound at various levels of concentrations.

[2] = Effect on haloperidol-induced catalepsy; format: in vivo, male ddY mice; details: 10 mg/kg po; for Total Score (catalepsy): 1 h after compound; for inhibition in vivo at 10 mg/kg: Mus musculus, 1 h, decrease in total score vs control group, read-out: Remission Rate (%)
Procedure: Effect on Haloperidol-Induced Catalepsy
Parkinson's disease is a clinical syndrome caused by degeneration and cell death of nigrostriatal dopaminergic neurons. Administration of haloperidol (dopamine D1 /D2 antagonist) induces catalepsy resulting from the blockade of postsynaptic dopamine D2 receptors.
The experiment was carried out using several groups of 5-week-old male ddY mice (weighing 22 to 24 g, Japan SLC), each group consisting of 5 or 10 mice. Haloperidol (manufactured by Janssen Pharmaceutica) was suspended in 0.3% CMC and imtraperitoneally administered to each mouse at a dose of 1.0 mg/kg. A test compound was suspended in injectable distilled water (manufactured by Otsuka Pharmaceutical Co., Ltd.) after adding Tween 80 [polyoxyethylene (20) sorbitan monooleate]. L-DOPA (manufactured by Kyowa Hakko Kogyo Co., Ltd.) and benserazide hydrochloride (manufactured by Kyowa Hakko Kogyo Co., Ltd.) were suspended in 0.3% CMC. One hour after the intraperitoneal administration of haloperidol, the suspension containing the test compound or the suspension containing no test compound [injectable distilled water (manufactured by Otsuka Pharmaceutical Co., Ltd.) containing Tween 80; control] were orally administered to the separate groups of the mice (0.1 ml per 10 g of body weight). One hour after the administration of the test compound, the forelimbs of each mouse and subsequently the hindlimbs of the same mouse were placed on a 4.5 cm-high, 1.0 cm-wide bar and catalepsy was estimated. All of the test compounds were orally administered at a dose of 10 mg/kg, and L-DOPA (100 mg/kg) and benserazide (25 mg/kg) were intraperitoneally administered together as a control. The catalepsy score and the standard of judgment are shown below. […]
Score Duration of the category
0: forelimbs less than 5 seconds
hindlimbs less than 5 seconds
1: forelimbs from 5 (inclusive)
to 10 (exclusive) seconds
2: forelimbs 10 seconds or more
3: (1) forelimbs from 5 (inclusive)
hindlimbs from 5 (inclusive)
or (2) forelimbs less than 5 seconds
hindlimbs 5 seconds or more
4: (1) forelimbs 10 seconds or more
or (2) forelimbs from 5 (inclusive)
hindlimbs 10 seconds or more
5: forelimbs 10 seconds or more
The effect of the compounds was evaluated by the total of the catalepsy scores of 5 or 10 mice in each group (25 or 50 points at the maximum). The groups wherein the total score was not more than 20 or 40 points were estimated to be effective. The number of the animals showing remission against catalepsy is the number of the mice for which the catalepsy score was not more than 4 points in 5 or 10 mice.

[3] = Effect on clonidine-induced aggressive behavior; format: in vivo, male ddY mice; details: po, clonidine 20 mg/kg ip; for Number of the Biting Attacks (mean ± S.E.M.), Test Compound-Treated Group: 30 min count
Procedure: Effect on Clonidine-Induced Aggressive Behavior
The enhancement effect of the test compounds on the aggressive behavior induced by intraperitoneal administration of clonidine [Eur. J. Pharmacol., 29, 374 (1968)] was investigated.
The experiment was performed using several groups of male ddY mice weighing 20 to 25 g (Japan SLC), each group consisting of two mice. A test compound was suspended in injectable distilled water (manufactured by Otsuka Pharmaceutical Co., Ltd.) after adding Tween 80. Clonidine hydrochloride (manufactured by Sigma Co.) was dissolved in physiological saline solution (manufactured by Otsuka Pharmaceutical Co., Ltd.). The suspension containing the test compound and the suspension containing no test compound (control) were orally administered to the separate groups of the mice (0.1 ml per 10 g of body weight). Sixty minutes after the oral administration of the test compound, clonidine hydrochloride (20 mg/kg) was intraperitoneally administered. The number of biting attacks during the 30 minutes immediately after the clonidine treatment was counted. The effect of the compounds was evaluated by comparing the number of biting attacks of the test compound-administered groups with that of control groups (significance test: Student' t-test).

[4] = out of 10 mice (score not more than 4)
[5] = 5 mice (max 25 points; control 25)
[6] = out of 5 mice (score not more than 4)

T1 sequence (P30543 whole entry): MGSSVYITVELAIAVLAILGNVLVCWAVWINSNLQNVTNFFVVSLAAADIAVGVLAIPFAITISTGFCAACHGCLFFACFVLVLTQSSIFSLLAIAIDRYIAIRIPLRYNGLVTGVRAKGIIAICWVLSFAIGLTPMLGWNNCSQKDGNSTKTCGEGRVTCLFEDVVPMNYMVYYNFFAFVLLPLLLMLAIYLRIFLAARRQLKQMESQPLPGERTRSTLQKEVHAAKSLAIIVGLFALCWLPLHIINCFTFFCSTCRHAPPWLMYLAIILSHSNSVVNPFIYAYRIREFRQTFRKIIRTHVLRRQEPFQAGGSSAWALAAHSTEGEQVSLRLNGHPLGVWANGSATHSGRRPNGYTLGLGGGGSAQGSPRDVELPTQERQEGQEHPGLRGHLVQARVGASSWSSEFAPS

SMILES | A2 Receptor Inhibition Rate (%) ([1]; 10^-6 M) | A2 Receptor Inhibition Rate (%) ([1]; 10^-7 M) | Total Score (catalepsy) ([2]; 10 mice (max 50 points)) | Number of Animals Showing Remission [2, 4] | inhibition in vivo at 10 mg/kg ([2]; 10 mice) [%] | Ratio of Attacks: Test Compd.-Treated Group/Control Group ([3]; 2.5 mg/kg) | Number of the Biting Attacks (mean ± S.E.M.), Test Compound-Treated Group ([3]; 2.5 mg/kg) | Total Score (catalepsy) [2, 5] | Number of Animals Showing Remission [2, 6] | inhibition in vivo at 10 mg/kg ([2]; 5 mice) [%] | Ratio of Attacks: Test Compd.-Treated Group/Control Group ([3]; 0.63 mg/kg) | Number of the Biting Attacks (mean ± S.E.M.), Test Compound-Treated Group ([3]; 0.63 mg/kg) | Ratio of Attacks: Test Compd.-Treated Group/Control Group ([3]; 10 mg/kg) | Number of the Biting Attacks (mean ± S.E.M.), Test Compound-Treated Group ([3]; 10 mg/kg)
CCC(=O)Oc1ccc(/C=C/c2nc3c(c(=O)n(CC)c(=O)n3CC)n2C)cc1OC [Compound 12, (E)-1,3-Diethyl-8-(3-methoxy-4-propionyloxystyryl)-7-methylxanthine] | 96 | 86 | 10 | 10 | 80 | 20.3 | 38.5 ± 8.4 | – | – | – | – | – | – | –
CCn1c(=O)c2c(nc(/C=C/c3ccc(OC(C)=O)c(OC)c3)n2C)n(CC)c1=O [Compound 5, (E)-8-(4-Acetoxy-3-methoxystyryl)-1,3-diethyl-7-methylxanthine] | 100 | 91 | – | – | – | – | – | 2 | 5 | 92 | 4.9 | 19.1 ± 6.6 | – | –
CCCn1c(=O)c2c(nc(/C=C/c3ccc(OC(=O)c4ccccc4)c(OC)c3)n2C)n(CCC)c1=O [Compound 6, (E)-8-(4-Benzoyloxy-3-methoxystyryl)-7-methyl-1,3-dipropylxanthine] | 96 | 81 | – | – | – | – | – | 9 | 5 | 64 | – | – | 16.0 | 36.8 ± 10.8
CCCn1c(=O)c2c(nc(/C=C/c3ccc(OC(C)=O)c(OC)c3)n2C)n(CCC)c1=O [Compound 4, (E)-8-(4-Acetoxy-3-methoxystyryl)-7-methyl-1,3-dipropylxanthine] | 98 | 94 | – | – | – | 11.0 | 47.4 ± 11.1 | 3 | 5 | 88 | – | – | – | –
CCn1c(=O)c2c(nc(/C=C/c3ccc(OC(C)=O)cc3)n2C)n(CC)c1=O [Compound 14, (E)-8-(4-Acetoxystyryl)-1,3-diethyl-7-methylxanthine] | 93 | 86 | 11 | 10 | 78 | – | – | – | – | – | 4.1 | 21.4 ± 7.4 | – | –

Reference: US5703085A, “Xanthine derivatives” (Kyowa Hakko Kogyo Co., Ltd., priority 1994, dated 1997)
